From patent US20090203775A1, “Novel compound and a novel microorganism for producing the novel compound” (Haiyi Biotech Pte, Ltd., priority 2005, published 2009) come the findings set out here.

≈ marks a conversion by molar mass, not a printed value.

The test has as its system Coxsakie B3 virus. The test can be described thus: organism not typed. Conditions: 36 h, read-out: IC50 (half inhibitory concentration for the virus). Format: cell-based. The procedure: Treatment of the sample: The sample was first dissolved in DMSO to appropriate concentration. The sample solutions were then diluted the samples in culture medium solution to obtain eight concentrations.
Methods: The Veo cells were cultured in 96-well plates. The cells were infected with Coxsakie B3 virus for 2 hours after 24 hours of incubation. The solution containing the virus was then discarded. The samples were then added into the wells at the concentrations with the appropriate controls. The cell pathological extent (CPE) was observed 36 hours later. The half inhibitory concentration (IC50) was calculated by using the method of Reed-Muench.
(1) “-” means that the sample has no anti Coxsakie B3 virus effect at the maximal dose with no toxicity. (2) TC50 indicates the half toxic concentration; IC50 indicates the half inhibitory concentration for the virus; SI indicates the selective index, calculated as the follow: SI=TC50/IC50

With `NC(=O)c1ncn([C@@H]2O[C@H](CO)[C@@H](O)[C@H]2O)n1` [RBV, Ribavirin, reference compound], the IC50 was found to be 448 µg/mL (≈ 1830 µM).
